# ChEMBL document CHEMBL1156824, “Physicochemical space for optimum oral bioavailability: contribution of human intestinal absorption and first-pass elimination” (J Med Chem, 2010)
# Tests used:
# Homo sapiens = species on record: Homo sapiens; test: Hepatic clearance in human; settings: in vivo
# clinical = settings: human, in vivo
Compound,CL (Homo sapiens) [mL/min/kg],CL renal (clinical) [mL/min/kg]
CNCC[C@@H](Oc1ccccc1C)c1ccccc1 [ATOMOXETINE],9,0.3
CCOc1cc(CC(=O)N[C@@H](CC(C)C)c2ccccc2N2CCCCC2)ccc1C(=O)O [REPAGLINIDE],7.7,0.1
C=CCN1CCCC1CNC(=O)c1cc2[nH]nnc2cc1OC (stereo not drawn) [ALIZAPRIDE],1.3,5.3
CN(C)CCC=C1c2ccccc2CCc2ccccc21 [AMITRIPTYLINE],6,0.1
CCN1CC(CCN2CCOCC2)C(c2ccccc2)(c2ccccc2)C1=O (stereo not drawn) [DOXAPRAM],5,0.3
C[C@H]1c2cccc(O)c2C(=O)C2=C(O)[C@]3(O)C(=O)C(C(N)=O)=C(O)[C@@H](N(C)C)[C@@H]3[C@@H](O)[C@@H]21.O [DOXYCYCLINE],0.3,0.2
COC(=O)Nc1nc2ccc(C(=O)c3ccccc3)cc2[nH]1 [MEBENDAZOLE],14.8,0.2
NC(=O)CN1CC(O)CC1=O (stereo not drawn) [OXIRACETAM],0.1,1.7
CN(C)C(=O)Oc1cccc([N+](C)(C)C)c1.[Br-] [NEOSTIGMINE BROMIDE],3.8,5.4
CCCCNc1cc(C(=O)O)cc(S(N)(=O)=O)c1Oc1ccccc1 [BUMETANIDE],1,1.5
C[C@H]1O[C@H](O[C@H]2[C@H](O)[C@@H](O)[C@@H](O[C@H]3[C@H](O)[C@@H](O)C(O)O[C@@H]3CO)O[C@@H]2CO)[C@H](O)[C@@H](O)[C@@H]1N[C@H]1C=C(CO)[C@@H](O)[C@H](O)[C@H]1O (stereo partly drawn) [ACARBOSE],0.1,2.1
O=C1CN=C(c2ccccn2)c2cc(Br)ccc2N1 [BROMAZEPAM],0.3,0.3
Cc1nnc(SCC2=C(C(=O)O)N3C(=O)[C@@H](NC(=O)[C@H](O)c4ccccc4)[C@H]3SC2)s1,0.2,2.4
OC(CCN1CCCC1)(c1ccccc1)C1CCCCC1 (stereo not drawn) [PROCYCLIDINE],0.8,0.043
CCOC(=O)Nc1ccc(NCc2ccc(F)cc2)nc1N [FLUPIRTINE],1.3,0.3
CCC[C@@H]1C[C@@H](C(=O)N[C@@H]([C@H]2O[C@H](SC)[C@H](O)[C@@H](O)[C@H]2O)[C@H](C)Cl)N(C)C1 [CLINDAMYCIN],3.9,0.6
Cn1c(=O)c2[nH]cnc2n(C)c1=O.O [THEOPHYLLINE],0.8,0.1
O=C1CN=C(c2ccccc2Cl)c2cc([N+](=O)[O-])ccc2N1 [CLONAZEPAM],0.9,0.0088
CCCCCNC(=N)N/N=C/c1c[nH]c2ccc(OC)cc12 [TEGASEROD],17.6,0.4
Cc1ccnc2c1NC(=O)c1cccnc1N2C1CC1 [NEVIRAPINE],0.3,0.0069
Cc1nccn1CC1CCc2c(c3ccccc3n2C)C1=O (stereo not drawn) [ONDANSETRON],5.5,0.3
O=P1(NCCCl)OCCCN1CCCl (stereo not drawn) [IFOSFAMIDE],0.5,0.6
C[C@H]([C@](O)(Cn1cncn1)c1ccc(F)cc1F)S(C)(=O)=O [GENACONAZOLE],0.038,0.2
CCC1(c2ccccc2)C(=O)NC(=O)NC1=O [PHENOBARBITAL],0.0479,0.0151
CN(C(=O)c1c(O)c2ccccc2n(C)c1=O)c1ccccc1 [ROQUINIMEX],0.1,0.0008

Compound,CL (Homo sapiens) [mL/min/kg],CL renal (clinical) [mL/min/kg]
COCCCOc1ccnc(C[S+]([O-])c2nc3ccccc3[nH]2)c1C (stereo not drawn) [RABEPRAZOLE],4,
O=c1[nH]cnc2c1ncn2[C@H]1CC[C@@H](CO)O1 [DIDANOSINE],4.2,
c1ccc(C2(c3ccccc3)CC2C2=NCCN2)cc1 (stereo not drawn) [CIFENLINE],4.4,
Cc1ccccc1N1C(=O)c2cc(S(N)(=O)=O)c(Cl)cc2NC1C (stereo not drawn) [METOLAZONE],0.3,
CC(=O)Nc1ccc(OCC(O)CNC(C)C)cc1 (stereo not drawn) [PRACTOLOL],0.3,
CC1=NS(=O)(=O)c2cc(Cl)ccc2N1 [DIAZOXIDE],,0.1
COc1cc(OC)c(C(=O)CCCN2CCCC2)c(OC)c1 [BUFLOMEDIL],4.3,
CCCC(CCC)C(=O)O [VALPROIC ACID],,0.0029
CC(C)(C)NC(=O)[C@H]1CC[C@H]2[C@@H]3CC[C@H]4NC(=O)C=C[C@]4(C)[C@H]3CC[C@]12C [FINASTERIDE],,0.024
CCN(CC)CCNC(=O)c1ccc(NS(C)(=O)=O)cc1 [SEMATILIDE],0.2,
CCOc1ccc(/C=C2\NCCc3cc(OCC)c(OCC)cc32)cc1OCC [DROTAVERINE],3.5,
CN[C@H](CC(C)C)C(=O)N[C@H]1C(=O)N[C@@H](CC(N)=O)C(=O)N[C@H]2C(=O)N[C@H]3C(=O)N[C@H](C(=O)N[C@H](C(=O)O)c4cc(O)cc(O)c4-c4cc3ccc4O)[C@H](O)c3ccc(c(Cl)c3)Oc3cc2cc(c3O[C@@H]2O[C@H](CO)[C@@H](O)[C@H](O)[C@H]2O[C@H]2C[C@](C)(N)[C@H](O)[C@H](C)O2)Oc2ccc(cc2Cl)[C@H]1O [VANCOMYCIN],0.3,
COc1ccc([C@@H]2Sc3ccccc3N(CCN(C)C)C(=O)[C@@H]2OC(C)=O)cc1 [DILTIAZEM],3.8,
C[C@]12CC[C@@H]3c4ccc(OC(=O)N(CCCl)CCCl)cc4CC[C@H]3[C@@H]1CC[C@@H]2OP(=O)(O)O [ESTRAMUSTINE PHOSPHATE],0.9,
CCC(CC)O[C@@H]1C=C(C(=O)O)C[C@H](N)[C@H]1NC(C)=O [OSELTAMIVIR CARBOXYLATE],0.3,
C[C@](N)(Cc1ccc(O)c(O)c1)C(=O)O [METHYLDOPA],1.4,
NC1CCN(c2c(F)cc3c(=O)c(C(=O)O)cn(C4CC4)c3c2Cl)C1 (stereo not drawn) [CLINAFLOXACIN],1.5,
CCCC1O[C@@H]2C[C@H]3[C@@H]4CCC5=CC(=O)C=C[C@]5(C)[C@H]4[C@@H](O)C[C@]3(C)[C@]2(C(=O)CO)O1 (stereo partly drawn) [BUDESONIDE],19,
Cc1cccc(C)c1NC(=O)C(C)N (stereo not drawn) [TOCAINIDE],1.4,
CC(C)(C)NCC(O)COc1ccc(NC(=O)NC2CCCCC2)cc1 (stereo not drawn) [TALINOLOL],2.3,
CN1CCN(C(=O)OC2c3nccnc3C(=O)N2c2ccc(Cl)cn2)CC1 (stereo not drawn) [ZOPICLONE],3.2,
CC1COc2c(N3CCN(C)CC3)c(F)cc3c(=O)c(C(=O)O)cn1c23 (stereo not drawn) [OFLOXACIN],0.8,
Cc1ccc(O)c([C@H](CCN(C(C)C)C(C)C)c2ccccc2)c1 [TOLTERODINE],8.4,
COC(=O)C1=C(C)NC(C)=C(C(=O)OCC(C)C)C1c1ccccc1[N+](=O)[O-] (stereo not drawn) [NISOLDIPINE],15,
CN1C2CCCC1CC(NC(=O)c1nn(C)c3ccccc13)C2 (stereo not drawn) [GRANISETRON],8.1,

Compound,CL (Homo sapiens) [mL/min/kg],CL renal (clinical) [mL/min/kg]
CCN(CC)C(=O)/C(C#N)=C/c1cc(O)c(O)c([N+](=O)[O-])c1 [ENTACAPONE],5.3,
CC1(C)S[C@@H]2[C@H](NC(=O)[C@H](N)c3ccccc3)C(=O)N2[C@H]1C(=O)O [AMPICILLIN],1.6,
CC1(C)S[C@@H]2[C@H](NC(=O)COc3ccccc3)C(=O)N2[C@H]1C(=O)O [PENICILLIN V],5.1,
Nc1nc2c(c(=O)[nH]1)N(C=O)C(CNc1ccc(C(=O)N[C@@H](CCC(=O)O)C(=O)O)cc1)CN2 (stereo partly drawn) [LEUCOVORIN],4.5,
Nc1ncnc2c1ncn2CCOCP(=O)(O)O [ADEFOVIR],0.4,
CN[C@@H]1CCc2[nH]c3ccc(C(N)=O)cc3c2C1 [FROVATRIPTAN],1.5,
CC[C@]1(O)C[C@@H]2CN(CCc3c([nH]c4ccccc34)[C@@](C(=O)OC)(c3cc4c(cc3OC)N(C)[C@H]3[C@@](O)(C(=O)OC)[C@H](OC(C)=O)[C@]5(CC)C=CCN6CC[C@]43[C@@H]65)C2)C1 [VINBLASTINE],0.5,
C[C@H]1O[C@@H](n2cc(F)c(=O)[nH]c2=O)[C@H](O)[C@@H]1O [DOXIFLURIDINE],6.7,
CN(C)CCc1c[nH]c2ccc(C[C@H]3COC(=O)N3)cc12 [ZOLMITRIPTAN],4.5,
N[C@@H](CC(=O)N1CCn2c(nnc2C(F)(F)F)C1)Cc1cc(F)c(F)cc1F [SITAGLIPTIN],1.3,
CN(C)[C@@H]1C(O)=C(C(N)=O)C(=O)[C@@]2(O)C(O)=C3C(=O)c4c(O)cccc4[C@@](C)(O)[C@H]3C[C@@H]12 [TETRACYCLINE],0.6,
C=CCc1ccccc1OCC(O)CNC(C)C (stereo not drawn) [ALPRENOLOL],14.4,
N[C@@H]1CN(c2c(F)cc3c(=O)c(C(=O)O)cn([C@@H]4C[C@@H]4F)c3c2Cl)CC12CC2 [SITAFLOXACIN ANHYDROUS],0.9,
CC1=C(C(=O)O)N2C(=O)[C@@H](NC(=O)[C@H](N)C3=CCC=CC3)[C@H]2SC1 [CEPHRADINE],0.2,
CC(C)[C@H]1CC[C@H](C(=O)N[C@H](Cc2ccccc2)C(=O)O)CC1 [NATEGLINIDE],1.7,
CO/N=C(\C(=O)N[C@@H]1C(=O)N2C(C(=O)O)=C(COC(N)=O)CS[C@H]12)c1ccco1 [CEFUROXIME],0.1,
O=P(O)(O)C(O)(Cc1cccnc1)P(=O)(O)O [RISEDRONIC ACID],0.2,
Nc1ccn(C[C@@H](CO)OCP(=O)(O)O)c(=O)n1.O.O [CIDOFOVIR],0.3,
O=C(O)[C@H]1/C(=C/CO)O[C@@H]2CC(=O)N21 [CLAVULANIC ACID],1.8,
CC(C)(C)NC(=O)[C@H]1CC[C@H]2[C@@H]3CC=C4C=C(C(=O)O)CC[C@]4(C)[C@H]3CC[C@]12C [EPRISTERIDE],0.3,
N=C(N)NC(=O)Cc1c(Cl)cccc1Cl [GUANFACINE],2.9,
COc1c(N2CCNC(C)C2)c(F)cc2c(=O)c(C(=O)O)cn(C3CC3)c12 (stereo not drawn) [GATIFLOXACIN],0.5,
CCNCC(O)c1cccc(O)c1 (stereo not drawn) [ETILEFRINE],10,
